Measured values from patent US20100144888A1, “PESTICIDAL METHODS AND COMPOSITIONS FOR MODULATING GABA RECEPTORS” (ECOSMART TECHNOLOGIES, INC., priority 2008, published 2010).

Experiments:
House Fly GABA receptor = target: T1, House Fly GABA receptor (Musca domestica, UniProt Q75NA5); assay: [3H]-TBOB binding assay, house fly GABA receptor; conditions: for modulation of the house fly GABA receptor: based on [3H]-TBOB-house fly GABA receptor binding assay, FIGS. 1-7; for effect on [3H]-TBOB binding activity: house fly GABA receptor, 4 nM [3H]-TBOB
T1 sequence (Q75NA5 30-576): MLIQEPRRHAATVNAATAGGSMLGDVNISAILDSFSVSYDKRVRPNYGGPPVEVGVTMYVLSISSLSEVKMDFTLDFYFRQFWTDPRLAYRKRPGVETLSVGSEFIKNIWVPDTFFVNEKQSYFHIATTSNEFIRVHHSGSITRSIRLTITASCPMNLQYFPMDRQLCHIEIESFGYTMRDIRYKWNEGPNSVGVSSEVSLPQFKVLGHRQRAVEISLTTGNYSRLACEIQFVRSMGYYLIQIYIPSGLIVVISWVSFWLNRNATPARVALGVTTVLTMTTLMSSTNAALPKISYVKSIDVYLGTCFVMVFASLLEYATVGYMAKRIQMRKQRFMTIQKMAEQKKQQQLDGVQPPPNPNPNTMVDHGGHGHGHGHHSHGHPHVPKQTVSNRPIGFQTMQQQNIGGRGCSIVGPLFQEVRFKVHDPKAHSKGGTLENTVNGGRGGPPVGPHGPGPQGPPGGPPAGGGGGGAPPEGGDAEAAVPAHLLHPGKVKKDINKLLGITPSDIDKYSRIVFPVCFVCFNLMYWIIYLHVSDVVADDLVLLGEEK
Method: [^3H]-TBOB Assay. In this study, five monoterpenoids (Pulegone, Thymol, Alpha-terpineol, Linalool and Carvacrol) were investigated to determine their modulation effects on [^3H]TBOB (t-butylbicycloorthobenzoate) binding to housefly GABA (Gamma-aminobutyric acid) receptors.
House fly heads (200) were homogenized in 10 mM tris-HCL buffer (pH 7.5) containing 0.25M sucrose (buffer A) with a glass homogenizer. The homogenate was centrifuged at 1,000×g for 5 minutes. The supernatant was filtered by four layers cheesecloth and centrifuged at 25,000×g for 30 minutes. The supernatant was discarded, and the pellet was homogenized and resuspended in buffer A for 30 minutes. The suspension was centrifuged at 25,000×g for 30 minutes. The final pellet was suspended in 10 mM phosphate buffer (pH 7.5) containing 300 mM NaCL (buffer B) and used directly for the assays.
(§1) 100 μl membrane was incubated for 70 minutes at room temperature with 4 nM [^3H]-TBOB, different amounts of candidate inhibitor and buffer B. The total assay buffer volume was 500 μl. After incubation, samples were filtered by glass fiber filter papers and washed with 5 ml ice-cold buffer B 3 times. Radioactivity was measured by liquid scintillation counter. Specific binding was calculated as the difference between the total ^3H bound and nonspecific ^3H bound with 100 μM picrotoxin.

[1] = tested on: insect GABA receptor (American cockroach CNS membrane microsacs); assay: GABA-activated 36Cl- uptake assay in membrane microsacs; format: biochemical, Periplaneta americana; conditions: for modulation of Cl- uptake: American cockroach membrane microsacs, 1 μM GABA, FIGS. 8-15; for type of modulation of the insect GABA receptor: conclusion from 36Cl- uptake results
Method: Cockroach CNS Membrane Microsacs Preparation: Thoracic and abdominal ganglia were removed from 30 American cockroaches and homogenized in 8.0 ml ice-cold buffer of the following composition (in millimoles per liter): NaBr, 145; KBr, 5.0; MgSO4, 1.0; Ca(NO3)2, 1.0; D-glucose, 10.0; N-2-hydroxyethylpiperazine-N′-2-ethanesulphonic acid (HEPES), 10.0 (adjusted to pH 7.5). The homogenate was centrifuged in 1.0 ml aliquots at 10,000×g for 20 min, and the pellets were re-suspended in buffer, re-centrifuged and finally re-suspended in buffer for assaying GABA-activated ^36Cl— uptake.
Cockroach GABA-activated ^36Cl— Uptake: Aliquots (200 μl) of this microsac preparation were incubated at 30° C. for 3 min after which 150 μl of a solution of ^36Cl— (0.2 μCi ml-l; specific activity 580 μCi mmol^−1) containing 1 μM GABA was added. Candidate monoterpenoids were incubated with the tissue sample for 3 min before addition of the solution containing ^36Cl— and GABA. To stop the influx of 36CL—, 2.0 m1 of ice cold buffer was added (after 10 s) and the solution was rapidly filtered over a glass-fiber filter (Whatman GF/C) followed by a 10-ml wash with ice-cold buffer. Filters, which then contained the microsacs, are placed into scintillation vials, and the scintillation cocktail was added. The vials were counted in the liquid scintillation counter, and the amount of ^36Cl— taken up into the microsacs was measured and calculated on the molar basis.

Mouse GABAa receptor = assay: [3H]-TBOB binding assay, mouse GABAa receptor; conditions: means±S.D., n=3, FIG. 1, read-out: IC50, inhibition of [3H]-TBOB binding
Method: as §1

Row | Compound | modulation of the house fly GABA receptor (House Fly GABA receptor) | effect on [3H]-TBOB binding activity (House Fly GABA receptor) | modulation of Cl- uptake [1] | type of modulation of the insect GABA receptor [1] | IC50 (Mouse GABAa receptor)
1 | Cc1ccc(C(C)C)cc1O [carvacrol] | modulated the house fly GABA receptor | potentiated the binding | modulate Cl— uptake | positive modulators | –
2 | C=CC(C)(O)CCC=C(C)C (stereo not shown) [linalool] | modulated the house fly GABA receptor | potentiated the binding | – | – | –
3 | CC1=CCC(C(C)(C)O)CC1 (stereo not drawn) [alpha-terpineol] | modulated the house fly GABA receptor | lesser effects | – | – | –
4 | ClC1=C(Cl)[C@]2(Cl)[C@@H]3[C@@H]4C[C@@H]([C@H]5O[C@@H]45)[C@@H]3[C@@]1(Cl)C2(Cl)Cl [Dieldrin] | – | – | – | – | 3.78 ± 0.45 µM
5 | Cc1ccc(C(C)C)c(O)c1 [thymol] | modulated the house fly GABA receptor | potentiated the binding | modulate Cl— uptake | positive modulators | –
6 | CC(C)=C1CC[C@@H](C)CC1=O [Pulegone] | modulated the house fly GABA receptor | potentiated the binding | modulate Cl— uptake | – | –
